Experimental findings from patent USRE50230E1, “Method of treatment of hypoxia inducible factor (HIF)-related conditions” (GRIFOLS WORLDWIDE OPERATIONS LIMITED, priority 2014, dated 2024) are described below.

For series [1], the system named is HIF1alpha protein. The series can be described thus: HIF1alpha protein levels by ELISA in SH-SY5Y cells. It is filed as cell-based, human. Here is the method: Human neuroblastoma SH-SY5Y cell line cells, cultured in serum free media were treated with plasma derived ApoTf and HoloTf (in both cases at a concentration of 1 mg/mL and 4 mg/mL) for 6 hours under normoxia (21% oxygen) and hypoxia conditions (1% oxygen). […] After 6 hrs intracellular proteins were harvested and tested for HIF1alpha protein levels by ELISA.
Experiment performed in example 1 was repeated but performing treatments for 24 hours and only under normoxic conditions. After 24 hrs intracellular proteins were harvested and tested for HIF1 alpha protein levels by ELISA.
After 6 hrs, intracellular proteins were harvested and tested for HIF1 alpha protein levels by ELISA.
To determine whether Apotransferrin increases the potency of the iron chelator, DFO, and the phd2 inhibitor IOX2; SH-SY5Y neuronal cells cultured in serum free media were treated with 4 mg/mL of the indicated proteins in the presence or absence of small molecule drug under normal oxygen levels. The data shown in FIG. 8A relates to treatment of cells with a combination of DFO or IOX2, at the indicated concentrations, plus 4 mg/mL protein. CoCl2 was used as an experimental positive control. The data shown in FIG. 8B relates to treatment of cells with a combination of 10 uM M30 plus/minus 4 mg/mL protein. The data shown in FIG. 8C relates to treatment of cells with a combination of 200 uM DFO plus/minus 4 mg/mL protein. After 6 hrs intracellular proteins were harvested and tested for HIF1 alpha protein levels by ELISA. Data are shown in pg/mL with standard deviation.
Background: ELISA stands for enzyme-linked immunosorbent assay.

Series [2] can be described thus: MCAo (Middle Cerebral Artery occlusion) rat model of brain stroke, infarct volume. It is filed as in vivo. The following applies: 385 mg/kg, IV, transient MCAo rat.
The test system of series [3] is renal proximal tubule epithelial (RPTEC) cells. The series can be described thus: Cell Titer Glow viability assay, RPTEC cells. The following applies: 48 hours. The class given is cell-based, human. Here is the method: (§1) Considering the anticipated safety profile of a human plasma protein, toxicity of DFO and transferrins (majority Apo, majority Holo and mixtures) was assessed in primary human kidney cells. The renal proximal tubule epithelial (RPTEC) or cortical epithelial (HRCE) cells were treated with the indicated concentrations of majority ApoTf or DFO for 48 hours (FIG. 11A); and RPTEC or HRCE cells were treated for 72 hrs with 4 mg/mL of majority ApoTf, majority HoloTf, mixtures of transferrin (FIG. 11B). After 48 or 72 hours, cells were subjected to a Cell Titer Glow viability assay. Control cells, untreated cells, were set to a value of 100% viable. The average viability and standard deviations are shown for each treatment condition.
In general terms: In ATP-based viability assays light output follows the ATP content of the culture.

Series [4] concerns cortical epithelial (HRCE) cells. Kind of series: Cell Titer Glow viability assay, HRCE cells. The class given is cell-based, human. To be noted: 48 hours. The procedure:
as §1

The subject of series [5] is NCI-H1650. The series can be described thus: Cell Titer Glow viability assay, NCI-H1650. The class given is cell-based, human. To be noted: 4 mg/mL, 72 hours. Here is the method: Given the anticipated safety profile of a human plasma protein, toxicity of transferrins (majority Apo, majority Holo and pd-transferrin) in NCI-H1650 and primary human hepatocyte cells was assessed. The human lung cell line, NCI-H1650, and primary human hepatocytes were treated for 72 hours with 4 mg/mL of majority ApoTf, majority HoloTf, or pd-transferrin. After 72 hours, cells were subjected to a Cell Titer Glow viability assay. Control cells, untreated cells, were set to a value of 100% viable. The average viability and standard deviations are shown in FIGS. 14A and 14B for each treatment condition.

Setting [6] is: 1 mg/mL, 6 hours, hypoxia (1% oxygen), SH-SY5Y.
Setting [7] is: 1 mg/mL, 6 hours, normoxia (21% oxygen), SH-SY5Y.
Where [8] appears, read: 1 mg/mL, 24 hours, normoxic, SH-SY5Y.
The mark [9] stands for this setting: 4 mg/mL, 6 hours, hypoxia (1% oxygen), SH-SY5Y.
[10] abbreviates: 4 mg/mL, 6 hours, normoxia (21% oxygen), SH-SY5Y.
Where [11] appears, read: 4 mg/mL, 24 hours, normoxic, SH-SY5Y.
Setting [12] is: 6 hours, normoxic, SH-SY5Y (FIG. 3).

Regarding “majority ApoTf: plasma derived transferrin composition, majority iron-free apo-transferrin (98% ApoTf, 2% HoloTf)”, the “HIF-1α cellular protein levels” value is “significant increase” in series [1] (setting [6]); “significant increase” in series [1] (setting [7]); “increased” in series [1] (setting [8]); “significant increase” in series [1] (setting [9]); “significant increase” in series [1] (setting [10]); “increased” in series [1] (setting [11]). The “HIF-1α cellular protein levels” value in series [1] (setting [12]) is on record as “increase”. In series [1] (4 mg/mL protein plus 10 uM M30, 6 hrs, normal oxygen, SH-SY5Y), the “effect on HIF1 alpha protein levels in combination with M30” value is reported as “synergistic effects”. Also, the “effect on HIF1 alpha protein levels in combination with DFO” value in series [1] (4 mg/mL protein plus 200 uM DFO, 6 hrs, normal oxygen, SH-SY5Y) was “synergistic effects”. The “volume of the infarcted area vs saline control” value in series [2] is reported as “significant decrease”. The “toxicity (cell viability)” value is “none of the transferrin molecules showed any detrimental effects” in series [3], “none of the transferrin molecules showed any detrimental effects” in series [4] and “no toxicity” in series [5].

In the case of “majority HoloTf: plasma derived transferrin composition, majority diferric holo-transferrin (30% ApoTf, 70% HoloTf)”, the “HIF-1α cellular protein levels” value is “significant increase” in series [1] (setting [6]); “significant increase” in series [1] (setting [7]); “tendency towards an increase” in series [1] (setting [8]); “tendency towards an increase” in series [1] (setting [9]); “significant increase” in series [1] (setting [10]); “significant increase” in series [1] (setting [11]). In addition, the “HIF-1α cellular protein levels” value in series [1] (setting [12]) is recorded as “increase”. Moreover, the “toxicity (cell viability)” value in series [5] was “no toxicity”.
